Measurements: patent publication US20140302012A1, “Combination Therapies for Treating Hematologic Malignancies Using Pyridopyrimidinone Inhibitors of PI3K/mTOR with Bendamustine and/or Rituximab” (priority 2011, published 2014)
Like-named read-outs stand apart in the source and are kept apart here.

Assays:
human WSU-DLCL2 = assay: Antitumor activity against human WSU-DLCL2 xenografts in SCID female mice; type: in vivo; conditions: for Median (nMad) tumor volume changes from baseline: n = 7
Experimental: To evaluate the antitumor activity of Bendamustine in combination with the dual pan-PI3K/mTOR inhibitor Compound A, experiments were conducted using female SCID mice bearing human WSU-DLCL2 xenografts. In this study, Bendamustine at 3.5 and 7 mg/kg was tested in combination with Compound A at 20 mg/kg.
CB17/1CR-Prkdc severe combined immunodeficiency (SCID)/Crl mice, at 8-10 weeks old, were bred at Charles River France (Domaine des Oncins, 69210 L'Arbreste, France) from strains obtained from Charles River, USA. Mice were over 18 g at start of treatment after an acclimatization time of at least 5 days. […] They were housed on a 12 hours light/dark cycle. Environmental conditions including animal maintenance, room temperature (22° C.±2° C.), relative humidity (55%±15%) and lighting times were recorded by the supervisor of laboratory animal sciences and welfare (LAW) and the records are archived.
The human WSU-DLCL2 tumor model was established by implanting (SC) small tumor fragments and was maintained in SCID female mice using serial passages.
Bendamustine formulation was prepared by incorporating the compound into NaCl 0.9% at pH 3. The preparation was prepared daily prior administration. The volume of IP administration per mouse was 10 mL/kg.
(§1) Compound A formulations were prepared in 1N HCl and water for injection, final pH was 3, followed by five cycles of vortexing and sonicating. The stock solution was chemically stable 7 days in the dark at 4° C. The volume of PO administration per mouse was 10 mL/kg.
For subcutaneous implantation of tumor cells, skin in the flank of the mice was disinfected using alcohol or Betadine® solution (Alcyon) and a suspension of tumor cells was inoculated SC unilaterally under a volume of 0.2 mL using a 23 G needle.
The animals required to begin a given experiment were pooled and implanted monolaterally on day 0. Treatments were administered on measurable tumors. The solid tumors were allowed to grow to the desired volume range (animals with tumors not in the desired range were excluded). The mice were then pooled and unselectively distributed to the various treatment and control groups. […] The dosages are expressed in mg/kg, based on the body weight at start of therapy. Mice were checked daily, and adverse clinical reactions noted. Each group of mice was weighed as a whole daily until the weight nadir was reached. Then, groups were weighed once to thrice weekly until the end of the experiment. Tumors were measured with a calliper 2 to 3 times weekly until final sacrifice for sampling time, tumor reached 2000 mm^3 or until the animal died (whichever comes first). Solid tumor volumes were estimated from two-dimensional tumor measurements and calculated according to the following equation:
Tumor weight (mg)=Length (mm)×Width^2(mm^2)/2
The primary efficacy end points are ΔT/ΔC, percent median regression, partial and complete regressions (PR and CR).
Changes in tumor volume for each treated (T) and control (C) group were calculated for each tumor by subtracting the tumor volume on the day of first treatment (staging day) from the tumor volume on the specified observation day. The median ΔT is calculated for the treated group, and the median ΔC is calculated for the control group. Then the ratio ΔT/ΔC is calculated and expressed as a percentage. The dose is considered as therapeutically active when ΔT/ΔC is lower than 40% and very active when ΔT/ΔC is lower than 10%.
Partial regression: Regressions are defined as partial if the tumor volume decreases to 50% or the tumor volume at the start of treatment.
Complete regression: The CR is achieved when tumor volume=0 mm^3 (CR is considered when tumor volume cannot be recorded).
The term “therapeutic synergy” is used when the combination of two products at given doses is more efficacious than the best of the two products alone considering the same doses.

[1] = type: in vivo
Experimental: The animals required to begin a given experiment were pooled and implanted monolaterally on day 0. Treatments were administered on measurable tumors. The solid tumors were allowed to grow to the desired volume range (animals with tumors not in the desired range were excluded). The mice were then pooled and unselectively distributed to the various treatment and control groups. Treatment started 20 days post WSU-DLCL2 tumor fragment implantation as indicated in the results section and in each table. The dosages are expressed in mg/kg, based on the body weight at start of therapy. Mice were checked daily, and adverse clinical reactions noted. Each group of mice was weighed as a whole daily until the weight nadir was reached. Then, groups were weighed once to thrice weekly until the end of the experiment. Tumors were measured with a calliper 2 to 3 times weekly until final sacrifice for sampling time, tumor reached 2000 mm^3 or until the animal died (whichever comes first). Solid tumor volumes were estimated from two-dimensional tumor measurements and calculated according to the following equation: […]
The day of death was recorded. Surviving animals were sacrificed and macroscopic examination of the thoracic and abdominal cavities was performed.
A dosage producing a 15% body weight loss (BWL) during three consecutive days (mean of group), 20% BWL during 1 day or 10% or more drug deaths was considered an excessively toxic dosage. Animal body weights included the tumor weight.

[2] = Maximum tolerated dose of Compound A administered as single agent; conditions: twice daily
[3] = Chemical stability of Compound A stock solution; type: physicochemical; conditions: formulation in 1N HCl and water for injection, final pH 3; in the dark at 4° C.
Experimental: as §1

[4] = Bendamustine 3.5 mg/kg per injection (total 21) IP, days 20-25
[5] = Bendamustine 7 mg/kg per injection (total 42) IP, days 20-25
[6] = Compound A 20 mg/kg per injection (total 240) PO, days 20-31

Cn1c(CCCC(=O)O)nc2cc(N(CCCl)CCCl)ccc21 [Bendamustine, 4-[5-[Bis(2-chloroethyl)amino]-1-methylbenzimidazol-2-yl]butanoic acid]
Regressions Complete (human WSU-DLCL2; [4]): 0/7
Regressions Partial (human WSU-DLCL2; [4]): 0/7
Median (nMad) tumor volume changes from baseline (human WSU-DLCL2; Bendamustine 3.5 mg/kg, Day 24): 170 (62.3)
Median (nMad) tumor volume changes from baseline (human WSU-DLCL2; Bendamustine 3.5 mg/kg, Day 26): 222 (89)
Median (nMad) tumor volume changes from baseline (human WSU-DLCL2; Bendamustine 3.5 mg/kg, Day 28): 268 (252)
Median (nMad) tumor volume changes from baseline (human WSU-DLCL2; Bendamustine 3.5 mg/kg, Day 31): 483 (247.6)
Regressions Complete (human WSU-DLCL2; [5]): 0/7
Regressions Partial (human WSU-DLCL2; [5]): 0/7
Median (nMad) tumor volume changes from baseline (human WSU-DLCL2; Bendamustine 7 mg/kg, Day 24): 267 (198.7)
Median (nMad) tumor volume changes from baseline (human WSU-DLCL2; Bendamustine 7 mg/kg, Day 26): 317 (258)
Median (nMad) tumor volume changes from baseline (human WSU-DLCL2; Bendamustine 7 mg/kg, Day 28): 306 (268.4)
Median (nMad) tumor volume changes from baseline (human WSU-DLCL2; Bendamustine 7 mg/kg, Day 31): 477 (249.1)
Average body weight change in % per mouse at nadir [1, 4]: −3.8%
Drug death (Day of death) [1, 4]: 0/7
day of nadir (body weight) [1, 4]: 28 days
Average body weight change in % per mouse at nadir [1, 5]: −7.2%
Drug death (Day of death) [1, 5]: 0/7
day of nadir (body weight) [1, 5]: 27 days
Tolerability ([1]; as single agents or in combination: Bendamustine 3.5 and 7 mg/kg, Compound A 20 mg/kg): tolerated

CCn1c(=O)c(-c2ccn[nH]2)cc2c(C)nc(N)nc21 [Compound A, 2-amino-8-ethyl-4-methyl-6-(1H-pyrazol-5-yl)pyrido[2,3-d]pyrimidin-7(8H)-one]
MTD of Compound A administered as single agent [2]: 50 mg BID
Regressions Complete (human WSU-DLCL2; [6]): 0/7
Regressions Partial (human WSU-DLCL2; [6]): 0/7
Median ΔT/ΔC in % day 31 (human WSU-DLCL2; Compound A 20 mg/kg per injection (total 240) PO, days 20-31, day 31, 20 mg/kg): 54%
Median (nMad) tumor volume changes from baseline (human WSU-DLCL2; Compound A 20 mg/kg, Day 24): 145 (139.4)
Median (nMad) tumor volume changes from baseline (human WSU-DLCL2; Compound A 20 mg/kg, Day 26): 218 (26.7)
Median (nMad) tumor volume changes from baseline (human WSU-DLCL2; Compound A 20 mg/kg, Day 28): 242 (172)
Median (nMad) tumor volume changes from baseline (human WSU-DLCL2; Compound A 20 mg/kg, Day 31): 314 (317.3)
Chemical stability of stock solution [3]: 7 days
Drug death (Day of death) [1, 6]: 0/7
Average body weight change in % per mouse at nadir ([1]; mouse, in vivo, po, 20 mg/kg): −2.0%
day of nadir (body weight) ([1]; mouse, in vivo, po, 20 mg/kg): 21 days
